Source: PubChem BioAssay AID2305 (GlaxoSmithKline (GSK), 2010)

system: P. falciparum 3D7 growth, pLDH absorbance; test: blood-stage malaria parasite growth potency – strain 3D7, dose response (AID 2305)

SMILES | IC50 [nM]
O=C(c1cccc(-c2ccc(-c3nc4ccc(C(F)(F)F)cc4[nH]3)cc2)c1)N1CCCCC1CN1CCC(O)C1 (centres undefined) | 470
CN1CCCN(c2ccnc3cc4c(cc23)N(C(=O)c2ccc(Cl)c(Cl)c2)CC4)CC1 | 870
O=C(Nc1ccc(Cl)c(C(F)(F)F)c1)N[C@H]1CCN(CCCCCNC(=O)[C@@H]2C[C@H]2c2ccc(Cl)c(Cl)c2)C1 | 1080
CCNc1cc(C(=O)N[C@@H](Cc2ccccc2)[C@H](O)CNCc2ccc3c(c2)OCCO3)cc(N2CCCCS2(=O)=O)c1 | 1350
Cc1[nH]nc2cc(F)c(-c3cc(OC[C@@H](N)Cc4ccccc4)cnc3-c3ccoc3)cc12 | 1040
CC(C)Nc1nc(NCCc2cnc[nH]2)nc(Nc2ccc(Oc3ccccc3)cc2)n1 | 890
CC1CCC2(CC1)N=C(N)N=C(N)N2OCCCCCCCCO (centres undefined) | 150
O=C1Nc2cccc3c2C1(CCCCN1CC=C(c2c[nH]c4ncccc24)CC1)CCC3 (centres undefined) | 400
CCN(CC)CCn1c(=N)n(CC(=O)c2ccc(-c3ccccc3)cc2)c2ccccc21 | 1140
COc1ccc(S(=O)(=O)NCCC2CCN(CCCCCNC(=O)C=Cc3ccc(Cl)c(Cl)c3)CC2)cc1 | 960
CN(C(=O)/C=C/c1c(Cl)cccc1Cl)C1CCN(CCCCCNC(=O)/C=C/c2ccc(Cl)c(Cl)c2)CC1 | 360
CCOC(=O)C(C#N)NC(=O)C=Cc1ccccc1 (centres undefined) | 800
Cc1ccc(Cn2nc(Cl)c(N3CCCNCC3)cc2=O)cc1NC(=O)Nc1ccc(-c2ccccc2)cc1 | 670
CCc1ccc(CN2CCCCC(NC(=O)c3cc(-c4ccccc4F)cs3)C2)cc1 (centres undefined) | 1160
CCC(CO)NCC(O)Cn1c2ccc(Br)cc2c2cc(Br)ccc21 (centres undefined) | 780
Fc1cccc(-c2ccc3c(c2)CC(NCc2c[nH]c4cnccc24)C3)c1 (centres undefined) | 480
Cc1cccc2[nH]c(-c3cccc(-c4ccc(NC(=O)c5cccc(C(N)=O)c5)cc4)c3)nc12 | 410
CCS(=O)(=O)N1CCN(c2nc(-c3ccccc3)nc(COC)c2Cc2ccccc2F)CC1 | 1450
CCc1cc2c(cc1OCCN(C)C)N(C(=O)Nc1ccc(-c3ccncc3)c(Cl)c1)CC2 | 840
CCCCN1Cc2c(n(CC(=O)Nc3ccccc3)c3cc(-c4ccccc4)nn3c2=O)C1=O | 810
COc1ccc(Nc2cc(C)c3cc(NC(=O)c4ccncc4)ccc3n2)cc1 | 910
O=C(c1cc(C(=O)NCc2ccc(Cl)cc2)c(=O)n(Cc2ccc(Cl)cc2)c1)c1cc(F)ccc1O | 950
O=C(/C=C/c1ccc(Cl)c(Cl)c1)NCCCCCCN1CCCN(C(=O)Nc2ccc(F)c(Cl)c2)CC1 | 740
CN(C(=O)c1snnc1-c1ccccc1)C1CCN(CCCCCNC(=O)/C=C/c2ccc(Cl)c(Cl)c2)CC1 | 190
CC(CN(C)C)C(=O)Nc1cccc(-c2cccc(-c3nc4ccc(F)cc4[nH]3)c2)c1 (centres undefined) | 830

SMILES | IC50 [nM]
O=C(Nc1ccc2c(c1)CCN2C1CCN(Cc2cc(F)cc(F)c2F)C1)c1ccco1 (centres undefined) | 590
Cc1ccccc1C1CCN(C2CCC(NC(=O)c3ccc(-c4ccccn4)s3)CC2)CC1 (centres undefined) | 1180
CCCCCCNC(=O)c1nn(CCN2CCC(N3CCCC3)CC2)cc1-c1ccc(Cl)c(Cl)c1 | 730
CCCCCCCn1c2c(c(=N)c3c1CCC3)CCCC2 | 100
Cc1ccc(CN2CCCN(Cc3ccc(C(=O)Nc4ccc(Cl)cc4)cc3)CC2)s1 | 1110
Cc1ccc(NC(=O)c2ccc3nccnc3c2)cc1OC1CCN(Cc2ccc(F)cc2)CC1 | 1010
Cc1cc(NCCCOc2ccc(Cl)cc2)nc(NCc2ccccc2)n1 | 780
CCCCCCC(C)c1cc(O)c2c(c1)OC(C)(C)C=C2c1ccncc1 (centres undefined) | 730
COc1cc(CNC2Cc3ccccc3C2)ccc1Oc1ccc2nc[nH]c2c1 | 950
COc1ccc2nccc([C@@H](O)CN3CCC(NC(=O)/C=C/c4ccc(F)c5ccccc45)CC3)c2c1 | 180
Cc1c(-c2cccc(C(C)(C)NCCCN3CCCCC3)c2)cnc(N)c1C | 940
CC(=O)c1ccc(N2C(=O)C3C(Cc4ccc(OC(C)(C)C)cc4)NC4(C(=O)N(Cc5ccc(C(C)(C)C)cc5)c5ccccc54)C3C2=O)cc1 (centres undefined) | 1280
CCNc1cc(C(=O)N[C@@H](Cc2ccccc2)[C@H](O)CNC2CCC(C(C)(C)C)CC2)cc(N2CCCC2=O)c1 (some centres undefined) | 440
CC(C)(C)c1cc(Cn2ccnc2)cc(C(C)(C)C)c1O | 1040
Cc1cc(N[C@@H](CC(C)C)C(=O)NCc2cccs2)nc(NCCc2cccs2)n1 | 1020
O=C(Nc1cccc(-c2ccc(-c3nc4ccc(F)cc4[nH]3)s2)c1)c1ccncc1 | 700
CCCCN(Cc1cc(Cl)c(OC)c(OC)c1)c1ccc(C(O)(C(F)(F)F)C(F)(F)F)cc1 | 190
O=C(NC1CCN(Cc2cccc(C(F)(F)F)c2)CC1)c1ccc(-c2cccc(C(F)(F)F)c2)s1 | 1010
Cc1cnc(N2CCN(CCCN3CCCC3)CC2)nc1Oc1ccc(-n2ccnc2)cc1 | 900
COc1ccc(NC(=O)CSc2nc(-c3ccccc3Cl)ns2)cc1 | 1040
CCCC(C)Nc1nc(C)cc(N[C@@H](CC(C)C)C(=O)NCc2cccc(F)c2)n1 (some centres undefined) | 1000
COc1ccc(CNCCc2cccs2)cc1-c1ccc(OC)c(S(=O)(=O)NCCN2CCCC2)c1 | 1410
CN1CCN(S(=O)(=O)c2cccc(Nc3nccc(N(C)c4ccc5c(c4)nc(NC(=O)c4cccs4)n5C)n3)c2)CC1 | 750
N#Cc1ccc(N2CCN(Cc3ccc(-c4ccc(-c5nc6ccc(F)cc6[nH]5)s4)cc3)CC2)nc1 | 850
